How the values were obtained:
Assay type in all cases: cell-based, human
MDA MB 231 cells [1] = test: Nuclear fragmentation by DAPI staining; details: MDA MB 231, DAPI staining, 24 hr
Protocol: Fragmentation of the nucleus on treatment with NIIST-AC-1 was analyzed using the cell permeable dye which binds to AT rich sequences in the minor groove of DNA. After treatment in 96 well culture plates for 24 hr, the cells were stained with DAPI for 20 min. The morphology of the stained nucleus was observed using a spinning disc fluorescent microscope at an excitation/emission of 360/460 nm (BD Pathway™ 855; Biosciences), and images were taken using the software BD Atto Vision™ version 1.6.

EGFR = EGFR expression studies (immunofluorescence); details: fluorescent images
Protocol: The expression of EGFR after treatment with NIIST-AC-1 was evaluated using indirect immunofluorescence. The cells after treatment were fixed with paraformaldehyde and incubated with primary antibody overnight. After washing the primary antibody, the cells were treated with alexa fluor conjugated secondary antibody for visualization. The cells were counterstained with DAPI for nuclear staining and were observed under a fluorescent microscope (IX83 inverted microscope; Olympus Life Science, cell Sens Dimension ver 3.1 software).

[2] = system: proteins in the extrinsic and intrinsic pathway of apoptosis; test: Protein array for expression of apoptotic proteins; details: MDA MB 231 lysates
Protocol: The expression of various proteins in the extrinsic and intrinsic pathway of apoptosis on treatment with NIIST-AC-1 was analyzed by using antibody pair-based assay, where the 43 targets were captured on a membrane. Lysates of control and treated cells were spotted to the membrane as protein equivalents. Paired biotinylated detector antibodies and streptavidin HRP were used for development using chemiluminescent method. Comparison of the membrane were done using densitometry software.

MDA MB 231 cells [3] = test: Measurement of intracellular reactive oxygen species (FACS); details: MDA MB 231, CM-H2DCFDA
Protocol: The upregulation of ROS upon treatment with NIIST-AC-1 was analyzed using the fluorescent probe CM-H2DCFDA (Sigma). After treatment, the cells were incubated DMEM containing CM-H2DCFDA at a final concentration of 5 μM at 37° C. for 30 min. The trypsinised cells were then suspended in PBA and analyzed using FACS (BD FACSAria II (BD Biosciences) at fluorescein isothiocyanate (FITC) range (excitation 495 nm, emission 529 nm bandpass filter). The mean fluorescence intensities of different groups were analyzed by BD FACSDiva ver 6.1.3 software and corrected for autofluorescence from unlabeled cells.

caspase-3 = test: Assay of caspase 3 (fluorometric, cell lysates); details: MDA MB 231 cell lysates, DEVD-AFC
Protocol: The activities of the initiator caspase-9 and downstream executioner caspase-3 were measured using Fluorometric Assay Kit. The caspase activity in the cell lysates of control and treated cells were measured by using the fluorescent substrate DEVD-AFC (for caspase-3 activity) and LEHD-AFC (for caspase-9 activity). Samples were read at 400-nm excitation filter and 505-nm emission filter in a fluorescent microplate reader (BioTek Synergy HT) using Gen5™ ver 1.05.11 software, and the results were expressed as relative units in terms of fluorescence.

MDA MB 231 cells [4] = test: Morphological analysis by phase contrast and electron microscopy; details: MDA MB 231, phase contrast and SEM
Source text: Morphological analysis of the cells treated with NIIST-AC-1 at different concentrations were monitored using phase contrast microscope Nikon EclipseTS100 (Nikon Instruments Inc., Melville, NY, USA, Magnification 20×) and SEM (Zeiss EVO 18 Special Edition) at ×2k and ×5k magnification.

MDA MB 231 cells [5] = test: RNA sequencing whole transcriptome analysis and gene set enrichment
Protocol: Toral RNA was isolated from the cells using RNeasy mini kit. 15 μg of cellular RNA was quality assessed (Bioanalyzer from Agilent Technologies) and used for mRNA library preparation. The mRNAs were fragmented, and the first strand of cDNA was synthesized from the cleaved RNA using random primers followed by second strand cDNA synthesis. The purified cDNA templates were enriched by PCR amplification to generate cDNA libraries. The developed libraries were presented to RNA sequencing facility and two rapid single-read 50 illumina HiSeq sequencing runs were performed. Raw reads from separate lanes of the same sample were merged for mapping. RNA sequencing was performed at Eurofins Genomics India Pvt. Ltd., Bengaluru 560048, Karnataka, India.
The output raw FASTQ files were analyzed using various tools of Galaxy platform to extract the differentially expressed genes as follows. The quality of the reads was analyzed using FastQC (Galaxy Version 0.72+galaxy1). The quality check reports were aggregated using MultiQC (Galaxy Version 1.9+galaxy1). Cutadapt (Galaxy Version 1.16.6) was used for adapter removal and filtering using threshold of minimum read length 20 and minimum quality (phred score) 20. Again, the quality was checked, and results were aggregated. The cleaned reads were mapped to a reference genome (Homo_sapiens.GRCh38.dna_sm.primary_assembly.fa.gz) and annotation file (Homo_sapiens.GRCh38.104.gtf.gz) using HISAT2 (Galaxy Version 2.1.0+galaxy7), a splice-aware alignment program. The output bam files are processed using StringTie (Galaxy Version 2.1.1) to assemble and quantitate RNA-Seq alignments into potential transcript. Later the Deseq2 (Galaxy Version 2.11.40.6+galaxy1) was used to determine normalized differentially expressed genes from the Stringtie output count tables. […] These differentially expressed genes were filtered using Filter (Galaxy Version 1.1.1) to extract significant ones by adding a filter of q-value<=0.05 and log 2 fold change >1.
The functional annotation (biological process, molecular function and pathways) was considered significant at False discovery rate (FDR B&H)<0.05. GSEA Preranked tool of standalone R program GSEA 4.1.0 was used to perform Gene Set Enrichment Analysis (GSEA) on ranked (log fold change based) list of total DEGs against CP: Canonical pathways (a pre-defined collection of 2922 gene sets) of Molecular Signatures Database (MSigDB). The enriched pathways with FDR qvalue less than 0.25 were considered significant.

[6] = whole transcriptome, q-value<=0.05 and log 2 fold change >1

## COc1cc(-c2cc(C(=O)NCc3cc(C(F)(F)F)cc(C(F)(F)F)c3)[nH]n2)cc(OC)c1OC [I-8, N-(3,5-bis(trifluoromethyl)benzyl)-3-(3,4,5-trimethoxyphenyl)-1H-pyrazole-5-carboxamide]
MDA MB 231 cells [1]
  nuclear fragmentation: significant nuclear fragmentation
EGFR
  EGFR expression: reduction in EGFR expression
[2]
  expression of apoptotic proteins (intrinsic and extrinsic pathways): upregulated the proteins involved in intrinsic and extrinsic pathways
MDA MB 231 cells [3]
  ROS generation: significant generation of ROS
caspase-3
  caspase 3 activity: upregulated caspase activity
MDA MB 231 cells [4]
  morphological changes of the cells: significant morphological changes
MDA MB 231 cells [5]; downregulated genes vs canonical gene sets
  downregulated signaling pathways (gene set enrichment analysis): downregulated many signaling pathways that are critical in the cell death process
MDA MB 231 cells [5]; upregulated genes vs canonical gene sets
  upregulated signaling pathways (gene set enrichment analysis): upregulation of signaling pathways of ER stress induced apoptosis, UPR response, autophagy, HDAC acetylation
MDA MB 231 cells [5]; [6]
  number of downregulated genes: 1642 genes
  number of upregulated genes: 1337 genes

From US20240376087A1, “PYRAZOLE AMIDE BASED COMPOUNDS AND USES AGAINST BREAST CANCER THEREOF” (COUNCIL OF SCIENTIFIC AND INDUSTRIAL RESEARCH AN INDIAN …, priority 2021, published 2024)
